Laboratory results reported in patent publication US20220074923A1, “METHODS OF IDENTIFYING PARKIN-MEDIATED MITOPHAGY ACTIVATING AGENTS” (THE GOVERNING COUNCIL OF THE UNIVERSITY OF TORONTO, priority 2018, published 2022).

Experiments:
Assay type in all cases: cell-based
[1] = test system: HEK293 GFP Parkin cells; experiment: High throughput small molecule screen for Parkin recruitment to mitochondria (high content imaging); conditions: 4 μM, 16 h, then CCCP 2 h; rank out of 480; low rank = activator of Parkin recruitment, high rank = inhibitor
Method: 10 uL of 0.1 mg/mL Poly-D-Lys solution was added to 384-well plates for 5 minutes, followed by a PBS wash. Plates were dried for at least 2 hours. 50 μL of 600 000 HEK293 GFP Parkin cell/mL of DMEM was dispensed into each well. After 24 hours incubation to allow the cells to adhere, 200 nL of small molecules (or DMSO in columns 1, 2, 23 and 24) were pinned. Following a 16-hour incubation, 200 nL of 5 mM CCCP were added to all wells except columns 1 and 2, into which 200 nL of DMSO was added. Following 2-hour incubation, cells were fixed with 4% paraformaldehyde (PFA) and stained with 50 μL of 1 μg/mL DAPI solution for 15 minutes. After the final PBS wash, plates were ready for high content microscopy.
Images were acquired on IN Cell Analyzer 6000 (GE Healthcare), equipped with sCMOS camera (2048×2048), and 20x/0.45 NA Plan Fluor objective (Nikon) in open aperture mode using 1×1 binning. Image analysis was performed using Columbus Image Analysis System (PerkinElmer). Nuclei were initially detected in DAPI channel, followed by whole cell segmentation in GFP channel. Using PhenoLOGIC machine learning plug-in, cells were split into 2 sub-populations: cells with even GFP-Parkin distribution and cells where GFP-Parkin was localized to mitochondria. The percentage of cells with mitochondrial GFP-Parkin was determined per well. The molecules were then rank ordered based on z-score, which is calculated using the formula: […]
where x is the percentage of cells with mitochondrial GFP-Parkin for a specific small molecule, μ is the average percentage of cells with mitochondrial Parkin in positive control columns 23 and 24, where cells are treated with CCCP only.
These cell lines were screened across 2 biological replicates with compounds from the kinase inhibitor (n=480) and Prestwick (n=1120) collections. The 3-day screening protocol consisted of (1) seeding cells, (2) pinning small molecules at 4 μM concentration and (3) inducing mitophagy with CCCP, followed by processing of plates for high content imaging. Following image acquisition, DAPI staining was used to segment cells within each image. Supervised machine learning was used to classify cells into two classes: (1) cells with cytosolic Parkin distribution and (2) those with Parkin localized to mitochondria. […] Compounds which increased the proportion of class 2 cells across 2 biological replicates, compared to the CCCP-only treated cells (FIG. 10), as indicated by their z-score (FIG. 11), were considered hits.

[2] = test system: differentiated SH-SY5Y cells; experiment: Cell viability determination (ATP levels normalized to protein); conditions: 24 hours
Method: SH-SY5Y cells were differentiated according to previously established protocol consisting of sequential treatment with retinoic acid followed by brain-derived neurotrophic factor^10. Cells were then seeded into white 96-well plates with white bottom and allowed to adhere overnight. Varying doses of SR3677 were combined with 500 μM paraquat and administered for 24 hours. Controls treated with 0.5 μM SR3677, equivalent volume DMSO and paraquat alone were also included. Following 24-hour incubation, cell media was aspirated and THE lysis buffer (50 mM Tris-HCl, 100 mM NaCl, 0.1 mM EDTA) containing protease inhibitor cocktail was added to each well. Half of the lysate volume was removed and aliquoted into a separate 96-well plate. ATP levels were measured in the opaque plate using the ATP determination (ThermoFisher A22066) assay kit and protein concentrations were measured using the Pierce BCA (ThermoFisher #23225) assay kit. ATP levels were normalized to protein concentration and then by the ratio for cells treated with paraquat alone in a control well on each plate.

[3] = test system: HeLa cells; experiment: Mito-QC assay (targeting of mitochondria to lysosomes); conditions: 0.5 μM 2 h pre-treatment, 10 μM CCCP 6 h with E-64 and leupeptin
Method: HeLa cells were seeded into 6-well plates containing glass coverslips and allowed to adhere overnight. Cells were co-transfected with RGOMP25 and Cerulean-Parkin plasmids 24 hours prior to treatments. E-64 and leupeptin were added along with either DMSO or 10 μM CCCP for 6 hours prior followed by a PBS wash, fixation with 4% PFA and a final PBS wash prior to mounting onto glass slides with Fluoromount.
Cells were treated with 50 μM chloroquine for 16 hours prior to addition of E64, leupeptin, SR3677 and CCCP in the indicated treatment group. For the in vivo mitoQC assays, 5 7-day old male TH-GAL4>UAS-mitoQC were placed into vials containing water (control), sublethal 1 mM paraquat, 1 mM SR3677 alone and in combination with paraquat for 7 days. […] Fly brains were mounted in VectaShield™ mounting medium for imaging using the Zeiss LSM700 confocal fluorescence microscope with 40× 1.4 NA Oil Plan-APOCRAMAT objective and the appropriate lasers and filter. […]
Quantification of the RG assay was done using Fiji software. […] A red/green fluorescence intensity ratio was determined for each pixel. Pixels were considered red-only if the red/green fluorescence ratio was greater than or equal to 1.5. The area of red-only pixels over the total non-background area was determined and averaged across 4 independent trials in which at least 20 cells were quantified per treatment.

[4] = test system: HK2; experiment: HK2 mitochondrial fraction and phosphorylation (fractionation, Phos-tag immunoblot)
Method: (a) SH-SY5Y treated with either 0.5 μM SR3677 or with DMSO were separated into total cell cytosolic and mitochondrial fractions. Fractions were separated by SDS-PAGE and immunoblotting was performed with anti-HK2 and anti-ATP5A antibodies. (b) The proposed mechanism through which SR3677 increases Parkin recruitment. (c) Cells serum-starved for 2 hours were treated with either DMSO or SR3677 for 10 or 30 minutes prior to harvesting. Lysates were separated by SDS-PAGE and immunoblotting was performed with anti-HK2 and anti-actin antibodies. Samples were also run on Phos-tag gels in parallel and immunoblotting was performed with anti-HK2 antibody. (d) Densitometry analysis was performed to quantify HK2 levels in each sample, followed by (e) normalization to mitochondrial marker, CValpha. Average HK2/CValpha ratios are plotted (n=2 independent experiments). (f) Densitometry analysis was performed on the band indicated by the arrow in (c). The average intensity of the indicated band normalized to actin loading control is expressed[…] (n=3 independent experiments). P-values were determined by paired student's t-test for (b, f), *P<0.05. All error bars represent s.e.m. […]

CN(C)CCOc1cc(-c2cn[nH]c2)ccc1NC(=O)[C@@H]1COc2ccccc2O1 [SR3677]
rank in the kinase inhibitor library screen (rank order by z-score) [1]: 71/480 | cell viability, compound alone ([2]; 0.5 μM): did not affect cell viability | viability of cells challenged with paraquat ([2]; varying concentrations with 500 μM paraquat): improved the viability of cells challenged with paraquat in a dose-dependent manner | mitochondrial targeting to lysosomes (red-only mitochondrial area) [3]: increased the extent of mitochondrial targeting to lysosomes | HK2 in the mitochondrial fraction ([4]; SH-SY5Y cells, 0.5 μM): More HK2 was observed in the mitochondrial fraction | phosphorylation of HK2 (Phostag gels) ([4]; serum-starved cells, 10 or 30 minutes): Increased phosphorylation of HK2
